Results on 18 molecules are retold here after patent publication US12441726B2, “Compounds and uses thereof” (Foghorn Therapeutics Inc., priority 2020, dated 2025).

SMILES strings stand for the structures.

Sequence of BRM (P51531 whole entry): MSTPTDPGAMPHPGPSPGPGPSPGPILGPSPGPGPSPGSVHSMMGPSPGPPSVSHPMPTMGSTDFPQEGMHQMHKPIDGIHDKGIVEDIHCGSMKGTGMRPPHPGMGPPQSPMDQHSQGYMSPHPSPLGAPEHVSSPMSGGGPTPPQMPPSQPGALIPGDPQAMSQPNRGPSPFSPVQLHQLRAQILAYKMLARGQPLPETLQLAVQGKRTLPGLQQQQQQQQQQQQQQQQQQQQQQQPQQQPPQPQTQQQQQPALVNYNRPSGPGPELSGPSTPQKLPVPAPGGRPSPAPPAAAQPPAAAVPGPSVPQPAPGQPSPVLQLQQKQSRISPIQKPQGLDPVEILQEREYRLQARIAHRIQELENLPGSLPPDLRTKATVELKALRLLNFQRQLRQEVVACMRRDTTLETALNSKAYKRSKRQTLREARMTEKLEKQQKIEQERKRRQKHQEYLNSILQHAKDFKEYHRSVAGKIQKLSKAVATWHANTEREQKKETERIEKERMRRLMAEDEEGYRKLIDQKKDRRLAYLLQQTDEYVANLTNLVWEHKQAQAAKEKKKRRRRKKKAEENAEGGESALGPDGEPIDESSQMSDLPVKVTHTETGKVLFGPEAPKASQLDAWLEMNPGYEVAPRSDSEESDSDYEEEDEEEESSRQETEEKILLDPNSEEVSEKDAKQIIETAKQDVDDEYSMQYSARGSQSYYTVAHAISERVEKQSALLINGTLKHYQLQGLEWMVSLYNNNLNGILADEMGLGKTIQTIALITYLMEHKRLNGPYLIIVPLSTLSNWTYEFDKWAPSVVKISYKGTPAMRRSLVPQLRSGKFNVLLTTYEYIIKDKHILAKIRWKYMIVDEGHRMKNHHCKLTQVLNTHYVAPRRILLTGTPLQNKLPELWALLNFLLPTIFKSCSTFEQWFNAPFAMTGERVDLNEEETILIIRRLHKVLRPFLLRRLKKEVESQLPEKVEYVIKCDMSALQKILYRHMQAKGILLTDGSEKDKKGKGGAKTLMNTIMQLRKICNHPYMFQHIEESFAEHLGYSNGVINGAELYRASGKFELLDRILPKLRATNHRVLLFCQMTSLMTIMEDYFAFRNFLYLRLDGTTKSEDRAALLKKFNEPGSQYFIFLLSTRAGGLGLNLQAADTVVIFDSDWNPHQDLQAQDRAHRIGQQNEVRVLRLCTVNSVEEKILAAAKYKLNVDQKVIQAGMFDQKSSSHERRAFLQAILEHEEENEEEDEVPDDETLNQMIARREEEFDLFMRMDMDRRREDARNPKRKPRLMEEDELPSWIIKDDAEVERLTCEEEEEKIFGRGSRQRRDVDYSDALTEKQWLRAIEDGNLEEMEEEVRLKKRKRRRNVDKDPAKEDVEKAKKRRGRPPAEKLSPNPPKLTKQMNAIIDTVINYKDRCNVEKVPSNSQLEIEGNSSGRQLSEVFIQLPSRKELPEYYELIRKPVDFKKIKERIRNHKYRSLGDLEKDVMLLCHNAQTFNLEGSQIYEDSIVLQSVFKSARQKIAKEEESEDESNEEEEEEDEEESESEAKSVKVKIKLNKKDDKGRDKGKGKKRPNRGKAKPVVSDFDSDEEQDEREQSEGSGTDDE

The first assay addresses BRM (Homo sapiens, UniProt P51531). The assay is described as follows: ATPase catalytic activity assay (ADP-Glo), BRM. To be noted: 30 nM BRM, 400 μM ATP.
On to `Cn1nc(-c2ccc3cnc(CNC(=O)c4ccc5c(c4)[C@](C)(C#N)COC5)cc3n2)cc1C(F)F` [Compound 162], for which the “BRM Max % Inhibition” value worked out at 91%.
Take `CN1CCCc2c(-c3ccc4cnc(CNC(=O)c5ccc6c(c5)[C@](C)(C#N)COC6)cc4n3)cccc21` [Compound 149]: the “BRM Max % Inhibition” value is given as 95%.
Turning to `COc1cc(-c2ccc3cnc(CNC(=O)c4ccc5c(c4)[C@](C)(C#N)COC5)cc3n2)nc(N2CCC2)n1` [Compound 442], the “BRM Max % Inhibition” value was determined as 96%.
In the case of `C[C@@]1(C#N)COCc2ccc(C(=O)NCc3cc4nc(-n5ccc(N6CCC6)n5)ccc4cn3)cc21` [Compound 426], the “BRM Max % Inhibition” value is given as 97%.
Take `C[C@@]1(F)COCc2ncc(C(=O)NCc3cc4nc(-c5ccnc(N6CCC6)c5F)cnc4cn3)cc21` [Compound 215]: the “BRM Max % Inhibition” value was found to be 97%.
Take `C[C@H]1CN(c2nccc(-c3ccc4cnc(CNC(=O)c5ccc6c(c5)[C@](C)(C#N)COC6)cc4n3)n2)CCO1` [Compound 322]: the “BRM Max % Inhibition” value worked out at 106%.
For the molecule `C[C@@]1(F)COCc2ccc(C(=O)NCc3cc4nc(-c5cccc(N6CCC6)n5)cnc4cn3)cc21` [Compound 214], the “BRM Max % Inhibition” value is given as 99%.
As to `CNC(=O)c1ccc(-c2ccc3cnc(CNC(=O)c4ccc5c(c4)[C@](C)(F)COC5)cc3n2)cn1` [Compound 260], the “BRM Max % Inhibition” value came to 83%.
As for `COCCNC(=O)c1cccc(-c2ccc3cnc(CNC(=O)c4ccc5c(c4)[C@](C)(C#N)COC5)cc3n2)c1` [Compound 468], the “BRM Max % Inhibition” value is reported as 100%.
Take `C[C@@]1(C#N)COCc2ccc(C(=O)NCc3cc([C@H]4C[C@@H](c5cccc(C6CC6)n5)C4)ccn3)cc21` [Compound 78]: the “BRM Max % Inhibition” value was 96%.
For `C[C@@]1(C#N)CCOc2ccc(C(=O)NCc3cc4nc(-c5ccccc5)sc4cn3)cc21` [Compound 118], the “BRM Max % Inhibition” value was 89%.
On the same count and under the same terms, the result for `COc1nn(C)cc1-c1ccc2cnc(CNC(=O)c3ccc4c(c3)[C@](C)(C#N)COC4)cc2c1` [Compound 367] reads 102%.
For `C[C@@]1(C#N)COCc2ccc(C(=O)NCc3cc4nc(-c5ccnc(N6CCC6)n5)ccc4cn3)cc21` [Compound 506], the “BRM Max % Inhibition” value was 97%.
For `C[C@@]1(C#N)COCc2ccc(C(=O)NCc3cc4cc(-c5cncc(C6CC6)n5)cnc4cn3)cc21` [Compound 342], the “BRM Max % Inhibition” value amounted to 97%.
In the case of `C[C@@]1(C#N)COCc2ccc(C(=O)NCc3cc4nc(N5CCn6nccc6C5)ccc4cn3)cc21` [Compound 486], the “BRM Max % Inhibition” value is reported as 95%.
Consider `C[C@]1(C#N)CCOc2ncc(C(=O)NCc3cc4nc(-c5cncc(C6CC6)n5)ccc4cn3)cc21` [Compound 253], for which the “BRM Max % Inhibition” value stood at 92%.
The same measure, in the same setting: for `C[C@@]1(C#N)COCc2ccc(C(=O)NCc3cc4nc(-c5ccnc(N6CCC6)c5)ccc4cn3)cc21` [Compound 437] the value was 99%; for `C[C@@]1(C#N)COCc2ccc(C(=O)NCc3cc4c(cn3)CCN(c3cccc(N5CCC5)n3)C4)cc21` [Compound 402], 96%.

Staying with this assay, now noted: BRM ATPase: IC50 (uM), 30 nM BRM, 400 μM ATP.
As a reminder, the IC50 is the point on the concentration scale where inhibition reaches its midpoint. Higher therefore signals lower potency. For the molecule `Cn1nc(-c2ccc3cnc(CNC(=O)c4ccc5c(c4)[C@](C)(C#N)COC5)cc3n2)cc1C(F)F` [Compound 162], the IC50 was 0.1 to 0.5 µM.
`CN1CCCc2c(-c3ccc4cnc(CNC(=O)c5ccc6c(c5)[C@](C)(C#N)COC6)cc4n3)cccc21` [Compound 149] had an IC50 of 0.1 to 0.5 µM.
On the same count and under the same terms, for `COc1cc(-c2ccc3cnc(CNC(=O)c4ccc5c(c4)[C@](C)(C#N)COC5)cc3n2)nc(N2CCC2)n1` [Compound 442] the value was less than 0.1 µM.
The molecule `C[C@@]1(C#N)COCc2ccc(C(=O)NCc3cc4nc(-n5ccc(N6CCC6)n5)ccc4cn3)cc21` [Compound 426] had an IC50 of 0.1 to 0.5 µM.
The molecule `C[C@@]1(F)COCc2ncc(C(=O)NCc3cc4nc(-c5ccnc(N6CCC6)c5F)cnc4cn3)cc21` [Compound 215] gave an IC50 of less than 0.1 µM.
`C[C@H]1CN(c2nccc(-c3ccc4cnc(CNC(=O)c5ccc6c(c5)[C@](C)(C#N)COC6)cc4n3)n2)CCO1` [Compound 322] gave an IC50 of less than 0.1 µM.
The molecule `C[C@@]1(F)COCc2ccc(C(=O)NCc3cc4nc(-c5cccc(N6CCC6)n5)cnc4cn3)cc21` [Compound 214] displayed an IC50 of less than 0.1 µM.
As to `CNC(=O)c1ccc(-c2ccc3cnc(CNC(=O)c4ccc5c(c4)[C@](C)(F)COC5)cc3n2)cn1` [Compound 260], the half-maximal inhibitory concentration (IC50) is 0.1 to 0.5 µM.
Still for that read-out and setting: for `COCCNC(=O)c1cccc(-c2ccc3cnc(CNC(=O)c4ccc5c(c4)[C@](C)(C#N)COC5)cc3n2)c1` [Compound 468] the value was less than 0.1 µM; for `C[C@@]1(C#N)COCc2ccc(C(=O)NCc3cc([C@H]4C[C@@H](c5cccc(C6CC6)n5)C4)ccn3)cc21` [Compound 78], less than 0.1 µM; for `C[C@@]1(C#N)CCOc2ccc(C(=O)NCc3cc4nc(-c5ccccc5)sc4cn3)cc21` [Compound 118], more than 1 µM.
`COc1nn(C)cc1-c1ccc2cnc(CNC(=O)c3ccc4c(c3)[C@](C)(C#N)COC4)cc2c1` [Compound 367] yielded an IC50 of less than 0.1 µM.
In turn, `C[C@@]1(C#N)COCc2ccc(C(=O)NCc3cc4nc(-c5ccnc(N6CCC6)n5)ccc4cn3)cc21` [Compound 506] came in with a half-inhibitory concentration (IC50) of less than 0.1 µM.
Turning to `C[C@@]1(C#N)COCc2ccc(C(=O)NCc3cc4cc(-c5cncc(C6CC6)n5)cnc4cn3)cc21` [Compound 342], the IC50 was less than 0.1 µM.
Still for that read-out and setting: for `C[C@@]1(C#N)COCc2ccc(C(=O)NCc3cc4nc(N5CCn6nccc6C5)ccc4cn3)cc21` [Compound 486] the value was 0.1 to 0.5 µM; for `C[C@]1(C#N)CCOc2ncc(C(=O)NCc3cc4nc(-c5cncc(C6CC6)n5)ccc4cn3)cc21` [Compound 253], 0.1 to 0.5 µM; for `C[C@@]1(C#N)COCc2ccc(C(=O)NCc3cc4nc(-c5ccnc(N6CCC6)c5)ccc4cn3)cc21` [Compound 437], less than 0.1 µM.
In turn, `C[C@@]1(C#N)COCc2ccc(C(=O)NCc3cc4c(cn3)CCN(c3cccc(N5CCC5)n3)C4)cc21` [Compound 402] had an IC50 of less than 0.1 µM.

A further assay deals with BRG-1 (Homo sapiens, UniProt P51532). The assay is described as follows: ATPase catalytic activity assay (ADP-Glo), BRG-1.
Sequence of BRG-1 (P51532 whole entry): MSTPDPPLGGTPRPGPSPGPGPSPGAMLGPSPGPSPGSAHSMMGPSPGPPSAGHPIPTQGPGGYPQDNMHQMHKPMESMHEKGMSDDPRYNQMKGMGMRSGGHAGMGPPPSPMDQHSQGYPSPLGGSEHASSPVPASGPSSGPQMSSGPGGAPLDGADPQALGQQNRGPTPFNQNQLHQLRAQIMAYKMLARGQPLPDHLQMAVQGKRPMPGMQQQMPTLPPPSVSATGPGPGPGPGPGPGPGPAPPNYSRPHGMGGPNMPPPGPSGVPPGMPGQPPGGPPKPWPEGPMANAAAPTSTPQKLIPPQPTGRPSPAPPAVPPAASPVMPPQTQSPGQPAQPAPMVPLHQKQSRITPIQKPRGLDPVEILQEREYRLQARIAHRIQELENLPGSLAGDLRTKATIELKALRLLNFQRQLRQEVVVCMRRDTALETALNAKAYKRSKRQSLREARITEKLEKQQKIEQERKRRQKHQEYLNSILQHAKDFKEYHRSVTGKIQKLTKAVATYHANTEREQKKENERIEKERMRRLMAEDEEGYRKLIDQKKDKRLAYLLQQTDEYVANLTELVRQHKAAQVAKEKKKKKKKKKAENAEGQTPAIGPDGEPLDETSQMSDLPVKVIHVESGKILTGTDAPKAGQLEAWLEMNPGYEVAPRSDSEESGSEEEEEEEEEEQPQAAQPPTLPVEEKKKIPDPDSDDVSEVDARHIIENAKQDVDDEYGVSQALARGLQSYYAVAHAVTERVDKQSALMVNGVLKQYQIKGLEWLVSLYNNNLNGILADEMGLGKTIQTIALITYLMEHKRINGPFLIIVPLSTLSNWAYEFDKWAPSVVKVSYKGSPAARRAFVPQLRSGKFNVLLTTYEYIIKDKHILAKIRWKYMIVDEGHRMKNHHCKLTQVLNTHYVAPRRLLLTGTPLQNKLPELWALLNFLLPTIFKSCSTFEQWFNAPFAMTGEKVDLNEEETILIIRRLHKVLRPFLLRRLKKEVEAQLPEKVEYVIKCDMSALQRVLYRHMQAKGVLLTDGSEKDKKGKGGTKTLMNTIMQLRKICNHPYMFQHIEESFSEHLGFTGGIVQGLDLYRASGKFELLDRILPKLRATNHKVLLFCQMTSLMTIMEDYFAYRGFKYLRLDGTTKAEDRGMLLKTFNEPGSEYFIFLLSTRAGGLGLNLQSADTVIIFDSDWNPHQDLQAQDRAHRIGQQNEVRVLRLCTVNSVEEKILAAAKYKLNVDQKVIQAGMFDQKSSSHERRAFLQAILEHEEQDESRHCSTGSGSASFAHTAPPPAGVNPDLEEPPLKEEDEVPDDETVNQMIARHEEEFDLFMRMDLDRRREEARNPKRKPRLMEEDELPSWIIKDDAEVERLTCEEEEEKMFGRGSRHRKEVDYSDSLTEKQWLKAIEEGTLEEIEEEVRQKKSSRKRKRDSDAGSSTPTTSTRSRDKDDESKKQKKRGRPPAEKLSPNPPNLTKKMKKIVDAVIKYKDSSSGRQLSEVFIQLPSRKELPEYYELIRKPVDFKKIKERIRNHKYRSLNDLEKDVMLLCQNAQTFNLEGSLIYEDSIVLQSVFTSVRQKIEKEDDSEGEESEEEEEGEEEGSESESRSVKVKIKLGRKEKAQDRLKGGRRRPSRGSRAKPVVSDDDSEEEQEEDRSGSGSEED
Settings: not given
`Cn1nc(-c2ccc3cnc(CNC(=O)c4ccc5c(c4)[C@](C)(C#N)COC5)cc3n2)cc1C(F)F` [Compound 162] came in with an IC50 of 500 to 1000 nM.
Molecule `CN1CCCc2c(-c3ccc4cnc(CNC(=O)c5ccc6c(c5)[C@](C)(C#N)COC6)cc4n3)cccc21` [Compound 149] gave an IC50 of 500 to 1000 nM.
Molecule `COc1cc(-c2ccc3cnc(CNC(=O)c4ccc5c(c4)[C@](C)(C#N)COC5)cc3n2)nc(N2CCC2)n1` [Compound 442] yielded an IC50 of 500 to 1000 nM.
`C[C@@]1(C#N)COCc2ccc(C(=O)NCc3cc4nc(-n5ccc(N6CCC6)n5)ccc4cn3)cc21` [Compound 426] had an IC50 of 500 to 1000 nM.
The molecule `C[C@@]1(F)COCc2ncc(C(=O)NCc3cc4nc(-c5ccnc(N6CCC6)c5F)cnc4cn3)cc21` [Compound 215] came in with an IC50 of 100 to 500 nM.
Still for that read-out and setting: the result for `C[C@H]1CN(c2nccc(-c3ccc4cnc(CNC(=O)c5ccc6c(c5)[C@](C)(C#N)COC6)cc4n3)n2)CCO1` [Compound 322] reads less than 100 nM.
As for `C[C@@]1(F)COCc2ccc(C(=O)NCc3cc4nc(-c5cccc(N6CCC6)n5)cnc4cn3)cc21` [Compound 214], the IC50 lay in the range of 100 to 500 nM.
`CNC(=O)c1ccc(-c2ccc3cnc(CNC(=O)c4ccc5c(c4)[C@](C)(F)COC5)cc3n2)cn1` [Compound 260] had an IC50 of more than 1000 nM.
On to `COCCNC(=O)c1cccc(-c2ccc3cnc(CNC(=O)c4ccc5c(c4)[C@](C)(C#N)COC5)cc3n2)c1` [Compound 468], for which the IC50 is 500 to 1000 nM.
The molecule `C[C@@]1(C#N)COCc2ccc(C(=O)NCc3cc([C@H]4C[C@@H](c5cccc(C6CC6)n5)C4)ccn3)cc21` [Compound 78] displayed an IC50 of 500 to 1000 nM.
Molecule `C[C@@]1(C#N)CCOc2ccc(C(=O)NCc3cc4nc(-c5ccccc5)sc4cn3)cc21` [Compound 118] registered an IC50 of more than 1000 nM.
Take `COc1nn(C)cc1-c1ccc2cnc(CNC(=O)c3ccc4c(c3)[C@](C)(C#N)COC4)cc2c1` [Compound 367]: the IC50 was 100 to 500 nM.
On to `C[C@@]1(C#N)COCc2ccc(C(=O)NCc3cc4nc(-c5ccnc(N6CCC6)n5)ccc4cn3)cc21` [Compound 506], for which the half-inhibitory concentration (IC50) was 100 to 500 nM.
The molecule `C[C@@]1(C#N)COCc2ccc(C(=O)NCc3cc4cc(-c5cncc(C6CC6)n5)cnc4cn3)cc21` [Compound 342] showed an IC50 of 500 to 1000 nM.
With `C[C@@]1(C#N)COCc2ccc(C(=O)NCc3cc4nc(N5CCn6nccc6C5)ccc4cn3)cc21` [Compound 486], the IC50 was more than 1000 nM.
`C[C@]1(C#N)CCOc2ncc(C(=O)NCc3cc4nc(-c5cncc(C6CC6)n5)ccc4cn3)cc21` [Compound 253] yielded an IC50 of 500 to 1000 nM.
The same measure, in the same setting: for `C[C@@]1(C#N)COCc2ccc(C(=O)NCc3cc4nc(-c5ccnc(N6CCC6)c5)ccc4cn3)cc21` [Compound 437] the value was 100 to 500 nM.
For the molecule `C[C@@]1(C#N)COCc2ccc(C(=O)NCc3cc4c(cn3)CCN(c3cccc(N5CCC5)n3)C4)cc21` [Compound 402], the IC50 was 500 to 1000 nM.

Still in this assay, the particulars now being: 1 h, read-out: BRG1 Max % Inhibition, ADP-Glo, 30 nM BRG-1, 400 μM ATP.
As to `Cn1nc(-c2ccc3cnc(CNC(=O)c4ccc5c(c4)[C@](C)(C#N)COC5)cc3n2)cc1C(F)F` [Compound 162], the Emax turned out to be 59%.
For the molecule `CN1CCCc2c(-c3ccc4cnc(CNC(=O)c5ccc6c(c5)[C@](C)(C#N)COC6)cc4n3)cccc21` [Compound 149], the Emax was 67%.
For the molecule `COc1cc(-c2ccc3cnc(CNC(=O)c4ccc5c(c4)[C@](C)(C#N)COC5)cc3n2)nc(N2CCC2)n1` [Compound 442], the Emax turned out to be 75%.
Regarding `C[C@@]1(C#N)COCc2ccc(C(=O)NCc3cc4nc(-n5ccc(N6CCC6)n5)ccc4cn3)cc21` [Compound 426], the Emax amounted to 78%.
On to `C[C@@]1(F)COCc2ncc(C(=O)NCc3cc4nc(-c5ccnc(N6CCC6)c5F)cnc4cn3)cc21` [Compound 215], for which the Emax was determined as 90%.
With `C[C@H]1CN(c2nccc(-c3ccc4cnc(CNC(=O)c5ccc6c(c5)[C@](C)(C#N)COC6)cc4n3)n2)CCO1` [Compound 322], the Emax is 97%.
`C[C@@]1(F)COCc2ccc(C(=O)NCc3cc4nc(-c5cccc(N6CCC6)n5)cnc4cn3)cc21` [Compound 214]: the Emax was determined as 93%.
`CNC(=O)c1ccc(-c2ccc3cnc(CNC(=O)c4ccc5c(c4)[C@](C)(F)COC5)cc3n2)cn1` [Compound 260]: the Emax stood at 42%.
Regarding `COCCNC(=O)c1cccc(-c2ccc3cnc(CNC(=O)c4ccc5c(c4)[C@](C)(C#N)COC5)cc3n2)c1` [Compound 468], the Emax is 80%.
As for `C[C@@]1(C#N)COCc2ccc(C(=O)NCc3cc([C@H]4C[C@@H](c5cccc(C6CC6)n5)C4)ccn3)cc21` [Compound 78], the Emax was determined as 79%.
Regarding `C[C@@]1(C#N)CCOc2ccc(C(=O)NCc3cc4nc(-c5ccccc5)sc4cn3)cc21` [Compound 118], the Emax worked out at 40%.
For the molecule `COc1nn(C)cc1-c1ccc2cnc(CNC(=O)c3ccc4c(c3)[C@](C)(C#N)COC4)cc2c1` [Compound 367], the Emax amounted to 93%.
Take `C[C@@]1(C#N)COCc2ccc(C(=O)NCc3cc4nc(-c5ccnc(N6CCC6)n5)ccc4cn3)cc21` [Compound 506]: the Emax is 96%.
In the case of `C[C@@]1(C#N)COCc2ccc(C(=O)NCc3cc4cc(-c5cncc(C6CC6)n5)cnc4cn3)cc21` [Compound 342], the Emax turned out to be 80%.
Regarding `C[C@@]1(C#N)COCc2ccc(C(=O)NCc3cc4nc(N5CCn6nccc6C5)ccc4cn3)cc21` [Compound 486], the Emax amounted to 70%.
As to `C[C@]1(C#N)CCOc2ncc(C(=O)NCc3cc4nc(-c5cncc(C6CC6)n5)ccc4cn3)cc21` [Compound 253], the Emax is 57%.
As to `C[C@@]1(C#N)COCc2ccc(C(=O)NCc3cc4nc(-c5ccnc(N6CCC6)c5)ccc4cn3)cc21` [Compound 437], the Emax was determined as 87%.
In the case of `C[C@@]1(C#N)COCc2ccc(C(=O)NCc3cc4c(cn3)CCN(c3cccc(N5CCC5)n3)C4)cc21` [Compound 402], the Emax worked out at 74%.
